# Measured values as given in ChEMBL document CHEMBL6092168, “Identification of novel indolinone derivatives as CTSC inhibitors to treat inflammatory bowel disease by modulating inflammatory factors” (Eur J Med Chem, 2024).
# Calls of active or inactive are those of the source. The calls are words filed in the database; no cut-off is given here.
# Experiments:
# Dipeptidyl peptidase 1 = Dipeptidyl peptidase 1 (Homo sapiens, UniProt P53634); test: Inhibition of Cathepsin C in human U-937 cells using H-Gly-Arg-AMC as substrate at 10 uM incubated for 5 days by fluorescence based microplate reader analysis relative to control; assay type: cell-based; conditions: time 5.0 day
# [1] = biological target: T1, Neutrophil elastase (Mus musculus) (UniProt Q3UP87); test: Induction of neutrophil elastase degradation in C57BL/6 mouse bone marrow cells assessed as residual activity at 10 uM incubated for 48 hrs by Western blot analysis relative to control; assay type: cell-based; conditions: Bone marrow cell
# T1 sequence (whole entry): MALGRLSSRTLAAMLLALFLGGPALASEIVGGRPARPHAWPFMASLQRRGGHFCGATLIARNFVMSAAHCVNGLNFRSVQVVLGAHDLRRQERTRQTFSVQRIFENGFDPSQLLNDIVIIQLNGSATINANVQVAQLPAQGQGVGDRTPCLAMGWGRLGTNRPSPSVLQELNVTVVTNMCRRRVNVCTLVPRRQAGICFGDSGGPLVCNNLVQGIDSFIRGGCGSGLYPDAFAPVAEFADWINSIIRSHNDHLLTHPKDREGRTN
# [2] = Tmax in male Sprague-Dawley rat at 10 mg/kg, po measured at 5 to 1440 mins by LC-MS/MS analysis; assay type: ADME, organism-based; conditions: in vivo, time 5-1440 min
# [3] = MRT in male Sprague-Dawley rat at 2 mg/kg, iv measured at 5 to 1440 mins by LC-MS/MS analysis; assay type: ADME, organism-based; conditions: in vivo, time 5-1440 min
# [4] = Oral bioavailability in male Sprague-Dawley rat at 10 mg/kg measured at 5 to 1440 mins by LC-MS/MS analysis; assay type: ADME, organism-based; conditions: in vivo, time 5-1440 min
# [5] = biological target: T2, Dipeptidyl peptidase 1 (Mus musculus) (UniProt P97821); test: In vivo inhibition of Cathepsin C in C57BL/6 mouse assessed as reduction in cathepsin C activity in blood administered orally once daily for 6 days by fluorescence based microplate reader; assay type: functional, organism-based; conditions: dose 5-30 mg/kg, route po, time 6.0 day
# T2 sequence (whole entry): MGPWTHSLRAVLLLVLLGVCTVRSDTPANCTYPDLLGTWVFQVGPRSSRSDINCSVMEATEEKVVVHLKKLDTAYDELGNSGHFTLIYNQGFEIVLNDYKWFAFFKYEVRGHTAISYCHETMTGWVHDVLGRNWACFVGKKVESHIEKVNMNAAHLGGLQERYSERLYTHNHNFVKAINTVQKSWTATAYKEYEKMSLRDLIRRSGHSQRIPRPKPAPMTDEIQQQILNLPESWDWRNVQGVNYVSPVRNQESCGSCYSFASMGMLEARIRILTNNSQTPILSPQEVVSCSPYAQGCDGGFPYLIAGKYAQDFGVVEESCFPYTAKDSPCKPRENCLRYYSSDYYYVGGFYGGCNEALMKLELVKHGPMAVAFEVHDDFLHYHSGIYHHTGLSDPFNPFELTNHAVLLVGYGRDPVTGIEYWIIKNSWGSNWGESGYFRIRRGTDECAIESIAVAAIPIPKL
# [6] = biological target: T2, Dipeptidyl peptidase 1 (Mus musculus); test: In vivo inhibition of Cathepsin C in C57BL/6 mouse assessed as reduction in cathepsin C activity in bone marrow administered orally once daily for 6 days by fluorescence based microplate reader; assay type: functional, organism-based; conditions: dose 5-30 mg/kg, route po, time 6.0 day
# [7] = biological target: T3, Cathepsin G (Mus musculus) (UniProt P28293); test: In vivo inhibition of Cathepsin G in C57BL/6 mouse assessed as reduction in cathepsin G activity in blood at 30 mg/kg, po administered once daily for 6 days by fluorescence based microplate reader relative to control; assay type: functional, organism-based; conditions: time 6.0 day
# T3 sequence (whole entry): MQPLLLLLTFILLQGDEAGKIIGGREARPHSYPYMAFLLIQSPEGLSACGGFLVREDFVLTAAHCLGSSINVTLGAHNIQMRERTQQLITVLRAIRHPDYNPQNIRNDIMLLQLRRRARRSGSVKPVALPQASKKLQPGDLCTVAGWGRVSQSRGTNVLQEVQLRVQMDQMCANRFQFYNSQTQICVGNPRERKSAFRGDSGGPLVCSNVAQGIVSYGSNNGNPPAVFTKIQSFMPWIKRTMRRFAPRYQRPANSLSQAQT
# [8] = biological target: T1, Neutrophil elastase (Mus musculus); test: In vivo inhibition of neutrophil elastase in C57BL/6 mouse assessed as reduction in neutrophil elastase activity in bone marrow at 30 mg/kg, po administered once daily for 6 days by fluorescence based microplate reader relative to control; assay type: functional, organism-based; conditions: time 6.0 day
# RAW264.7 = test: Anti-inflammatory activity in LPS-stimulated mouse RAW264.7 cells assessed as reduction in TNF-alpha production incubated for 24 hrs by ELISA; assay type: functional, cell-based; conditions: dose 0.62-5 µM
# [9] = Acute toxicity in ICR mouse assessed as liver pathological change at 1500 mg/kg, po administered daily for 7 days by H and E staining based analysis; assay type: organism-based; conditions: in vivo, 168 h, time 7 day
# [10] = Acute toxicity in ICR mouse assessed as spleen pathological change at 1500 mg/kg, po administered daily for 7 days by H and E staining based analysis; assay type: organism-based; conditions: in vivo, 168 h, time 7 day
# Mus musculus [11] = test: Anti-inflammatory activity in DSS-induced ulcerative colitis male C57BL/6 mouse model assessed as increase in body weight at 60 mg/kg administered via gavage for 10 days; assay type: functional, organism-based; conditions: time 10.0 day
# Mus musculus [12] = test: Anti-inflammatory activity in DSS-induced ulcerative colitis male C57BL/6 mouse model assessed as reduction in IL- 6 expression in serum administered via gavage for 10 days by ELISA; assay type: functional, organism-based; conditions: dose 15-60 mg/kg, time 10.0 day
# Mus musculus [13] = test: Anti-inflammatory activity in DSS-induced ulcerative colitis male C57BL/6 mouse model assessed as reduction in Cathepsin C level in colon at 60 mg/kg administered via gavage for 10 days; assay type: functional; parameters: scale not given: the % may be the effect or the level left; conditions: time 10 day
# Mus musculus [14] = test: Anti-inflammatory activity in DSS-induced ulcerative colitis male C57BL/6 mouse model assessed as reduction in neutrophil elastase level in colon at 60 mg/kg administered via gavage for 10 days relative to control; assay type: functional; parameters: scale not given: the % may be the effect or the level left; conditions: time 10 day
# [15] = biological target: T4, Myeloblastin (Mus musculus) (UniProt Q61096); test: In vivo inhibition of proteinase 3 in C57BL/6 mouse assessed as reduction in proteinase 3 activity in blood administered orally once daily for 6 days by fluorescence based microplate reader; assay type: functional, organism-based; conditions: dose 5-30 mg/kg, route po, time 6.0 day
# T4 sequence (whole entry): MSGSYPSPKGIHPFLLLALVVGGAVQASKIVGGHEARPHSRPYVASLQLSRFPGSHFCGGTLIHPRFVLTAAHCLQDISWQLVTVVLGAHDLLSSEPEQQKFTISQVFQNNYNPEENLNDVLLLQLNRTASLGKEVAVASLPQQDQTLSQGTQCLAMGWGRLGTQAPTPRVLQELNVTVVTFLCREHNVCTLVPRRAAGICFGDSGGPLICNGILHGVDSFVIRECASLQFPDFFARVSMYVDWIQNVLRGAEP
# [16] = biological target: T3, Cathepsin G (Mus musculus); test: In vivo inhibition of Cathepsin G in C57BL/6 mouse assessed as reduction in cathepsin G activity in blood administered orally once daily for 6 days by fluorescence based microplate reader; assay type: functional, organism-based; conditions: dose 5-30 mg/kg, route po, time 6.0 day
# Mus musculus [17] = test: Anti-inflammatory activity in DSS-induced ulcerative colitis male C57BL/6 mouse model assessed as decrease in body weight loss at 15 mg/kg administered via gavage for 10 days; assay type: functional, organism-based; conditions: time 10.0 day
# Mus musculus [18] = test: Anti-inflammatory activity in DSS-induced ulcerative colitis male C57BL/6 mouse model assessed as increase in IL-10 expression in colon administered via gavage for 10 days by ELISA; assay type: functional, organism-based; conditions: dose 15-60 mg/kg, time 10.0 day
# Chain of Dipeptidyl peptidase 1 (P53634 25-134 limits assumed): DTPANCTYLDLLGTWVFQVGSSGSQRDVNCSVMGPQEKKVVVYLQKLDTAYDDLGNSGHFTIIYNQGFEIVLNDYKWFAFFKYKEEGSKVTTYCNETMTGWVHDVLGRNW
# Chain of Dipeptidyl peptidase 1 (P53634 231-394 limits assumed): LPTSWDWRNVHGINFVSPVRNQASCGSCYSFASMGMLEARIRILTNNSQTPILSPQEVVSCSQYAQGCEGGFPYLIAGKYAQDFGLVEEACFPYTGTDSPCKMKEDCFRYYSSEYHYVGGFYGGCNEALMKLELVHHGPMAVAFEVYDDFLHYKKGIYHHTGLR
# Chain of Dipeptidyl peptidase 1 (P53634 395-463 limits assumed): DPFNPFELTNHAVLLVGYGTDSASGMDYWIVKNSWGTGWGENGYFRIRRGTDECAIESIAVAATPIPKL
smiles,measurement,setting,value
O=C1Nc2c(cccc2-c2ccc(NC3CCOCC3)cc2)/C1=C/c1ccnc2ccccc12,inhibition,Dipeptidyl peptidase 1,14.9%
same,Activity,[1],6.65%
same,Tmax,[2],39.6 min
same,MRT,[3],628.8 min
same,F,[4],29.05%
same,inhibition,[5],Dose-dependent-effect
same,inhibition,[6],Dose-dependent-effect
same,inhibition,[7],39.5%
same,inhibition,[8],59.1%
same,Activity,RAW264.7,Dose-dependent-effect
same,Activity,[9],Non-toxic
same,Activity,[10],Non-toxic
same,Activity,Mus musculus [11],Active
same,Activity,Mus musculus [12],Dose-dependent-effect; Significant Reduction Observed In High Dose Group
same,Activity,Mus musculus [13],45%
same,Activity,Mus musculus [14],50%
same,inhibition,[15],Dose-dependent-effect
same,inhibition,[16],Dose-dependent-effect
same,Activity,Mus musculus [17],Active; Weight Loss Was Lower Than In Mesalazine Group
same,Activity,Mus musculus [18],Dose-dependent-effect; Significant Increase Observed In High Dose Group
